The results in this text go back to patent publication US9321781B2, “Topoisomerase inhibitors” (Rutgers, The State University of New Jersey, priority 2009, dated 2016).

For data set [1], the system named is human lymphoblast RPMI 8402. Kind of data set: MTT cytotoxicity assay (Test B), RPMI 8402. Particulars: RPMI 8402 cells, continuous exposure four days, read-out: Cytotoxicity (IC50 values (μM) RPMI8402). Format: cell-based. As for the experimental part: (§1) Test B. Cytotoxic assays (cancer cell lines and efflux transporter cell lines)
(§2) The cytotoxicity was determined using the MTT-microtiter plate tetrazolinium cytotoxicity assay (MTA). The human lymphoblast RPMI 8402 and its camptothecin-resistant variant cell line, CPT-K5 was provided by Dr. Toshiwo Andoh (Aichi Cancer Center Research Institute, Nagoya, Japan). The P388 mouse leukemia cell line and its CPT-resistant TOP1-deficient variant P388/CPT45 were obtained from Michael R. Mattern and Randal K. Johnson (GlaxoSmithKline, King of Prussia, Pa.). The KB3-1 cell line and its multidrug-resistant variant KBV-1 were obtained from K.V. Chin (The Cancer Institute of New Jersey, New Brunswick, N.J.). The KBH5.0 cell line as noted previously was derived from KB3-1 by stepwise selection against Hoechst 33342. The cytotoxicity assay was performed using 96-well microtiter plates. Cells were grown in suspension at 37° C. in 5% CO2 and maintained by regular passage in RPMI medium supplemented with 10% heat inactivated fetal bovine serum, L-glutamine (2 mM), penicillin (100 U/mL), and Streptomycin (0.1 mg/mL). For determination of IC50, cells were exposed continuously for four days to varying concentrations of drug, and MTT assays were performed at the end of the fourth day. […] All assays were performed at least twice in six replicate wells.

The test system of data set [2] is CPT-K5 (camptothecin-resistant variant cell line of RPMI 8402). Kind of data set: MTT cytotoxicity assay (Test B), CPT-K5. The data set is classed as cell-based, human. Particulars: CPT-K5 cells, continuous exposure four days. The procedure: as §1, §2
Data set [3] concerns P388 mouse leukemia cell line. Kind of data set: MTT cytotoxicity assay (Test B), P388. Format: cell-based. As to conditions: 96 h, P388 cells, continuous exposure four days. The procedure:
as §1, §2

Data set [4] has as its system P388/CPT45 (CPT-resistant TOP1-deficient variant of P388). Kind of data set: MTT cytotoxicity assay (Test B), P388/CPT45. As to conditions: Mus musculus, P388CPT45, 96 h, P388/CPT45 cells, continuous exposure four days. Format: cell-based. As for the experimental part: as §1, §2
A general note: Formazan colour is commonly taken as a measure of viable cells.

Data set [5] can be described thus: MTT cytotoxicity assay, KB3-1 parent cell line. Format: cell-based. As to conditions: human, KB3-1 cells (parent cell line), KB3-1 parent cells, continuous exposure four days. The procedure:
as §1, §2
(§3) The cytotoxicity of the representative compounds of the invention were also tested against cell line KB3-1 (parent cell line), KBV-1 (a variant that overexpresses efflux transporter MDR1) and KBH5.0 (a variant that overexpresses BCRP). Differences in the relative cytotoxicity between the parent and variant cell lines may be indicative of a compound that is a substrate for an efflux transporter. […] Accordingly, compounds of the invention may be useful to treat tumors that are resistant to other anticancer agents, including anticancer agents that are susceptible to efflux by BCRP (e.g. anthracyclines, mitoxantrone, topotecan, irinotecan, bisanthrone, doxorubicin, daunorubicin, and epirubin.

The next data set relates to MDR1. Kind of data set: MTT cytotoxicity assay, KBV-1 efflux transporter cell line. Format: cell-based. As to conditions: human, KBV-1 cells (KB3-1 variant that overexpresses MDR1), KBV-1 cells (MDR1 overexpressing), continuous exposure four days. The procedure: as §1, §2, §3
The test system of the next data set is BCRP. Kind of data set: MTT cytotoxicity assay, KBH5.0 efflux transporter cell line. The data set is classed as cell-based. Particulars: human, KBH5.0 cells (KB3-1 variant that overexpresses BCRP); KBH5.0 cells (BCRP overexpressing), continuous exposure four days, MTT. As for the experimental part: as §1, §2, §3
Data set [6] has as its system KBH5.0 (a variant that overexpresses BCRP). The data set is described as above. Format: cell-based. As to conditions: inferred from relative cytotoxicity KB3-1 vs KBH5.0. The procedure: as §1, §2, §3

Like-named read-outs stand apart in the source and are kept apart here.

Broadly, the IC50 is the concentration needed to halve the response being measured. As for `COc1cc2c(cc1OC(=O)N(C)C)c(=O)n(CCN(C)C)c1c3cc4c(cc3ncc21)OCO4` [Example 9, 5-(2-(dimethylamino)ethyl)-9-methoxy-2,3-methylenedioxy-6-oxo-5,6-dihydrodibenzo[c,h][1,6]naphthyridin-8-yl dimethylcarbamate], the concentration for half-maximal inhibition (IC50) is 1.7 µM in data set [1] (Homo sapiens, 96 h); greater than 10 µM in data set [2] (Homo sapiens, 96 h); 1.3 µM in data set [3]; 3.8 µM in data set [4]. Moreover, the values for the IC50 at 4 days (in data set [5]; in the data set with MDR1; in the data set with BCRP) were 0.4 µM, 3 µM and 2 µM, respectively.
Turning to `CCNC(=O)Oc1cc2c(=O)n(CCN(C)C)c3c4cc5c(cc4ncc3c2cc1OC)OCO5` [Example 8, 5-(2-(dimethylamino)ethyl)-9-methoxy-2,3-methylenedioxy-6-oxo-5,6-dihydrodibenzo[c,h][1,6]naphthyridin-8-yl ethylcarbamate], the half-maximal inhibitory concentration (IC50) was 0.003 µM in data set [1] (Homo sapiens, 96 h); 0.5 µM in data set [2] (Homo sapiens, 96 h); 0.003 µM in data set [3]; 0.09 µM in data set [4]. Moreover, the IC50 at 4 days in data set [5] amounted to 0.004 µM; in the data set with MDR1, 0.04 µM; with BCRP, 0.015 µM.
Regarding `COc1cc2c(cc1OC(=O)CCC1CCCC1)c(=O)n(CCN(C)C)c1c3cc4c(cc3ncc21)OCO4` [Example 5, 5-(2-(dimethylamino)ethyl)-9-methoxy-2,3-methylenedioxy-6-oxo-5,6-dihydrodibenzo[c,h][1,6]naphthyridin-8-yl (3-cyclopentyl)propionate], the half-inhibitory concentration (IC50) in data set [1] (Homo sapiens, RPMI 8402, 96 h) is 0.003 µM; in data set [2] (Homo sapiens, CPT-K5, 96 h), 0.33 µM; in data set [3], 0.002 µM; in data set [4], 0.07 µM. The IC50 at 4 days in data set [5] was found to be 0.003 µM; with MDR1, 0.058 µM; with BCRP it was 0.013 µM.
With `COc1cc2c(cc1OC(=O)c1ccccc1)c(=O)n(CCN(C)C)c1c3cc4c(cc3ncc21)OCO4` [Example 1, 5-(2-(dimethylamino)ethyl)-9-methoxy-2,3-methylenedioxy-6-oxo-5,6-dihydrodibenzo[c,h][1,6]naphthyridin-8-yl benzoate], the IC50 was determined as 0.006 µM in data set [1] (Homo sapiens, RPMI 8402, 96 h); 0.009 µM in data set [1]; 0.55 µM in data set [2]; 0.5 µM in data set [2] (Homo sapiens, CPT-K5, 96 h); 0.002 µM in data set [3]; 0.12 µM in data set [4]. For the same compound, the values for the half-inhibitory concentration (IC50) at 4 days (in data set [5]; in the data set with MDR1; with BCRP) were 0.002 µM, 0.06 µM and 0.025 µM, respectively.
Take `COc1cc2c(cc1OC(=O)OC(C)(C)C)c(=O)n(CCN(C)C)c1c3cc4c(cc3ncc21)OCO4` [Example 7, tert-butyl 5-(2-(dimethylamino)ethyl)-9-methoxy-2,3-methylenedioxy-6-oxo-5,6-dihydrodibenzo[c,h][1,6]naphthyridin-8-yl carbonate]: the half-maximal inhibitory concentration (IC50) in data set [1] (Homo sapiens, RPMI 8402, 96 h) was determined as 0.0005 µM; in data set [2] (Homo sapiens, CPT-K5, 96 h), 0.31 µM; in data set [3], 0.001 µM; in data set [4], 0.08 µM. Also, the IC50 at 4 days in data set [5] was determined as 0.002 µM; in the data set on MDR1, 0.004 µM; in the data set on BCRP, 0.009 µM.
Regarding `CCOC(=O)Oc1cc2c(=O)n(CCN(C)C)c3c4cc5c(cc4ncc3c2cc1OC)OCO5` [Example 6, 5-(2-(dimethylamino)ethyl)-9-methoxy-2,3-methylenedioxy-6-oxo-5,6-dihydrodibenzo[c,h][1,6]naphthyridin-8-yl ethyl carbonate], the IC50 is 0.0006 µM in data set [1] (Homo sapiens, RPMI 8402, 96 h); 0.25 µM in data set [2] (Homo sapiens, CPT-K5, 96 h); 0.0002 µM in data set [3]; 0.06 µM in data set [4]. In addition, the IC50 at 4 days was determined as 0.001 µM in data set [5], 0.003 µM with MDR1 and 0.008 µM in the data set on BCRP.
`COc1cc2c(cc1OC(=O)c1ccccc1C)c(=O)n(CCN(C)C)c1c3cc4c(cc3ncc21)OCO4` [Example 2, 5-(2-(dimethylamino)ethyl)-9-methoxy-2,3-methylenedioxy-6-oxo-5,6-dihydrodibenzo[c,h][1,6]naphthyridin-8-yl 2-methylbenzoate]: the half-inhibitory concentration (IC50) was determined as 0.07 µM in data set [1] (Homo sapiens, RPMI 8402, 96 h); 0.05 µM in data set [1]; 2 µM in data set [2] (Homo sapiens, CPT-K5, 96 h); 0.03 µM in data set [3]; 0.4 µM in data set [4]. Besides, the figures for the IC50 at 4 days (in data set [5]; in the data set on MDR1; in the data set on BCRP) were 0.04 µM, 0.2 µM and 0.04 µM, respectively. In addition, the “substrate for efflux transporter BCRP” value in data set [6] is reported as “not a substrate for BCRP”.
As for `COc1cc2c(cc1OC(=O)C(C)(C)C)c(=O)n(CCN(C)C)c1c3cc4c(cc3ncc21)OCO4` [Example 4, 5-(2-(dimethylamino)ethyl)-9-methoxy-2,3-methylenedioxy-6-oxo-5,6-dihydrodibenzo[c,h][1,6]naphthyridin-8-yl pivalate], the IC50 in data set [1] (Homo sapiens, RPMI 8402, 96 h) worked out at 0.0007 µM; in data set [2] (Homo sapiens, CPT-K5, 96 h) it was 0.3 µM; in data set [3] it was 0.003 µM; in data set [4], 0.25 µM. Moreover, the IC50 at 4 days in data set [5] came to 0.002 µM; in the data set on MDR1, 0.024 µM; with BCRP, 0.017 µM.
`COc1cc2c(cc1OC(C)=O)c(=O)n(CCN(C)C)c1c3cc4c(cc3ncc21)OCO4` [Example 3, 5-(2-(dimethylamino)ethyl)-9-methoxy-2,3-methylenedioxy-6-oxo-5,6-dihydrodibenzo[c,h][1,6]naphthyridin-8-yl acetate]: the 50% inhibitory concentration (IC50) in data set [1] (Homo sapiens, RPMI 8402, 96 h) was determined as 0.009 µM; in data set [2] (Homo sapiens, CPT-K5, 96 h) it was 0.7 µM; in data set [3], 0.004 µM; in data set [4] it was 0.3 µM. Moreover, the IC50 at 4 days in data set [5] is 0.007 µM; with MDR1 it was 0.06 µM; in the data set with BCRP it was 0.025 µM.
In the case of `COc1cc2c(cc1OC(=O)N1CCC(N3CCCCC3)CC1)c(=O)n(CCN(C)C)c1c3cc4c(cc3ncc21)OCO4` [Example 10, 5-(2-(dimethylamino)ethyl)-9-methoxy-2,3-methylenedioxy-6-oxo-5,6-dihydrodibenzo[c,h][1,6]naphthyridin-8-yl 1,4′-bipiperidine-1′-carboxylate], the half-inhibitory concentration (IC50) in data set [1] (Homo sapiens, 96 h) turned out to be 0.55 µM; in data set [2] (Homo sapiens, 96 h), 1.5 µM; in data set [3], 0.5 µM; in data set [4] it was 0.5 µM. In addition, the concentration for half-maximal inhibition (IC50) at 4 days is 0.75 µM in data set [5], 1.6 µM in the data set with MDR1 and 1.1 µM in the data set with BCRP.
